Test results: PMC13210772, “Dual FLT3/MAPK14 Proteolysis-Targeting Chimera (PROTAC) Induces Potent Acute Myeloid Leukemia Cell Death” (Pharmaceuticals, 2026)

Assays:
ULK1 = biological target: T1, ULK1 (Homo sapiens, UniProt O75385); assay: NanoBRET CELLinib128; format: binding; conditions: 1 µM; 100% no effect, 0% complete tracer displacement
T1 construct: Full-length kinase ORF (Promega, Madison, WI, USA) cloned in frame with a NanoLuc-vector; host or cells: HEK293T
Summary of the method: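 Live-cell NanoBRET target engagement; HEK293T transfected with full-length NLuc-kinase, 20 h expression. Single-shot 1 μM compound + tracer, 2 h, 37 °C, 5% CO2. BRET read 450/610 nm; normalized to tracer/background ctrl, mean ± SD.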

MAPK14 = MAPK14 (Homo sapiens, UniProt Q16539); assay: MAPK14 degradation, immunoblot in leukemia cells; format: cell-based; parameters: endogenous in cells; host or cells: K562, RS4-11, MV4-11, MOLM-13 (A17); MV4-11 (A20); conditions: K562, RS4-11, MV4-11 and MOLM-13 cells; 50 nM MA191, 24 h
Sequence of MAPK14 (Q16539 2-360 limits assumed): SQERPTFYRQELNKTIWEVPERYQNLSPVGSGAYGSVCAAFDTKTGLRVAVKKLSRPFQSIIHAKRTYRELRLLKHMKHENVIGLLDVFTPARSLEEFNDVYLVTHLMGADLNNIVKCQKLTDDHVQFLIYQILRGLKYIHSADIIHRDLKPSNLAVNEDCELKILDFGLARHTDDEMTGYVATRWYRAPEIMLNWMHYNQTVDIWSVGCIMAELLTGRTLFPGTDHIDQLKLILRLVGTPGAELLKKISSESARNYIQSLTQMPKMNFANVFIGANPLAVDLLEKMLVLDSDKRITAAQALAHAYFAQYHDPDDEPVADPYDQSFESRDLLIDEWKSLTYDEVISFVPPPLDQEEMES

FLT3-ITD = biological target: T2, FLT3-ITD (Homo sapiens, UniProt P36888, INS600HVDFREYEYD); assay: Phosphorylation of FLT3-ITD, immunoblot in MV4-11 cells; format: cell-based; parameters: We treated MV4-11 cells with the synthesized degraders of FLT3; endogenous in cells; host or cells: MV4-11
T2 sequence (P36888 with tags, fused parts or gaps INS600HVDFREYEYD): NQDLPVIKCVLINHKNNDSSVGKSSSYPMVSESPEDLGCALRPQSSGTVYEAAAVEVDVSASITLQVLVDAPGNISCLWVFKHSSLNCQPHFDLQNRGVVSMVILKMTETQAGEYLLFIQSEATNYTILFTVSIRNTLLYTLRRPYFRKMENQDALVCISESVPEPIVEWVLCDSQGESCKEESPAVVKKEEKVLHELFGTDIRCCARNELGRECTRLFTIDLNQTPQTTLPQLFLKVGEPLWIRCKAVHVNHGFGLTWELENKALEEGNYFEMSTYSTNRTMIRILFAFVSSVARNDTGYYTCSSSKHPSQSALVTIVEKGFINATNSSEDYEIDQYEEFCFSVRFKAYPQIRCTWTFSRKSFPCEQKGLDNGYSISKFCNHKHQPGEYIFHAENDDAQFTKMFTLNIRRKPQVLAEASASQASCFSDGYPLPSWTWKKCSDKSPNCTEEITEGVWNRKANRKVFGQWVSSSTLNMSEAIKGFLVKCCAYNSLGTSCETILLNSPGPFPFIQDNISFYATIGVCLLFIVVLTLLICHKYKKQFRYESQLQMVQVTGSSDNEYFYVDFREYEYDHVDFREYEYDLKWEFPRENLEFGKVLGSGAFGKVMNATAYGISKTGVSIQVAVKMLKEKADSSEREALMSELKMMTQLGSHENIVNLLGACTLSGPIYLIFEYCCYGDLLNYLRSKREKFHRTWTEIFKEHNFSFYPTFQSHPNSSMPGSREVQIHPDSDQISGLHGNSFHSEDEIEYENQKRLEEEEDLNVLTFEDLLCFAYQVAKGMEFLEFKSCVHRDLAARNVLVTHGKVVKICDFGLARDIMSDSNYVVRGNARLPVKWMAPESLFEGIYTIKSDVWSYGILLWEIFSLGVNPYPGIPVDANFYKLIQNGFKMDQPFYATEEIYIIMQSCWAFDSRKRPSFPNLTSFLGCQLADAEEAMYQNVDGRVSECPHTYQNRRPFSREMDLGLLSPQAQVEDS
Source text: We aimed to delineate if the FLT3 inhibitor part of MA191 acts as a MAPK14 inhibitor in MV4-11 cells. We used the phosphorylation of FLT3-ITD and the phosphorylation of MAPK14 as markers for their activation. […] This finding is consistent with the detection of MAPK14 in the kinase selectivity profiling approach (Figure 3; MAPK14 is termed p38α therein).
Figure 7 Targeting MAPK14 augments anti-leukemic effects of an inhibition of FLT3-ITD. (a) The graphs show the mRNA levels of MAPK14 in leukemia cells and normal blood cells. […] All immunoblots show data from at least two independent repetitions. (c) Model for how inhibition of various signaling pathways affects AML cells (red, cytoplasm, blue, nucleus).

T1 sequence (O75385 whole entry): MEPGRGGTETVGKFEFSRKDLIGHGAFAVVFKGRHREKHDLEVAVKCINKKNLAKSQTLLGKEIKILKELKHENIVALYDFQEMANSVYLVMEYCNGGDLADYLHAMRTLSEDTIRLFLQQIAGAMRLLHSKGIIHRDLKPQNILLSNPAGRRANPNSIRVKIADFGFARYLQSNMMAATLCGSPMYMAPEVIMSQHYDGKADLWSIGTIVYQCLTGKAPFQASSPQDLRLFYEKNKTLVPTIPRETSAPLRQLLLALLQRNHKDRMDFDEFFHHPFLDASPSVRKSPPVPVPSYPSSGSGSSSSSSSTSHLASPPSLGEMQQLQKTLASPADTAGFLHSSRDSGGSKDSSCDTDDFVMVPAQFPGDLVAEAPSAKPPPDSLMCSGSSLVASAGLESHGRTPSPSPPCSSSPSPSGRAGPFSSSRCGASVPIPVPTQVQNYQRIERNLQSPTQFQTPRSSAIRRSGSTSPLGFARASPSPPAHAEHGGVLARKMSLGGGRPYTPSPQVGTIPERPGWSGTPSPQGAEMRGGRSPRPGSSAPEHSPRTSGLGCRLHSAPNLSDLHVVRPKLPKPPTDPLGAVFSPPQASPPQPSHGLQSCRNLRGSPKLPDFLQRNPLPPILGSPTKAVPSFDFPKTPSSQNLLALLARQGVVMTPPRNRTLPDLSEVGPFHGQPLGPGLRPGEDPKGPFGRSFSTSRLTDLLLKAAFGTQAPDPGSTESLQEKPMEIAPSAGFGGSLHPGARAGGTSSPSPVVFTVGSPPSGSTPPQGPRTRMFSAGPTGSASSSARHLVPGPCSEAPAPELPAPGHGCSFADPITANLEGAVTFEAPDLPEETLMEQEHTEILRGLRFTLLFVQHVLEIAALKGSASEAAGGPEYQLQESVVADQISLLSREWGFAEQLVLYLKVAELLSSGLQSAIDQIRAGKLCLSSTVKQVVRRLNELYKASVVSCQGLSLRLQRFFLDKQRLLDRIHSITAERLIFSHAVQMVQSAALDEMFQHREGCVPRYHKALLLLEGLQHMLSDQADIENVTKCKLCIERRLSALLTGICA

Tracer bound (ULK1) [%]	MAPK14 protein level, immunoblot (MAPK14)	Compound	phosphorylation of FLT3-ITD (FLT3-ITD)
117.4		CNC(=O)c1cc(Oc2ccc(NC(=O)Nc3cc(C(C)(C)C)on3)cc2)ccn1 [MA68, reference compound]	
	depleted MAPK14	Cc1ncsc1-c1ccc([C@H](C)NC(=O)[C@@H]2C[C@@H](O)CN2C(=O)[C@@H](NC(=O)[C@H]2CC[C@H](C(=O)N3CCN(CCNC(=O)c4cc(Oc5ccc(NC(=O)Nc6cc(C(C)(C)C)on6)cc5)ccn4)CC3)CC2)C(C)(C)C)cc1 [MA191, 4-(4-(3-(5-(tert-Butyl)isoxazol-3-yl)ureido)phenoxy)-N-(2-(4-(trans-4-(((S)-1-((2S,4R)-4-hydroxy-2-(((S)-1-(4-(4-methylthiazol-5-yl)phenyl)ethyl)carbamoyl)pyrrolidin-1-yl)-3,3-dimethyl-1-oxobutan-2-yl)carbamoyl)cyclohexanecarbonyl)piperazin-1-yl)ethyl)picolinamide]	inhibited the phosphorylation of FLT3-ITD
